Read-outs that look alike come from different tables or passages of the source.
Legend:
[1] = system: MCF-7 primary breast adenocarcinoma cells
Procedure: The MCF-7 cells were seeded in six-well plates (150,000 cells/well), grown overnight (37° C., 5% CO2) during which they attached to the bottom plate. The cells were then treated with compound D5 (RS5982) or compound RS6008 at concentrations of 10 μM. 20 μM or 50 μM. In the negative and positive control experiments, the cells were treated with 0.25% DMSO and 1 μM of Paclitaxel, respectively. […] Finally, for each time point, the viable cell counts were plotted relatively to the number of viable cells measured in the presence of 0.25% DMSO.

[2] = system: MCF-7 primary breast adenocarcinoma cells; conditions: for cell proliferation (summary statement): combined experimental findings
Procedure: The MCF-7 cells were seeded in six-well plates (150,000 cells/well), grown overnight (37° C., 5% CO2) during which they attached to the bottom plate. The cells were then treated with compound D5 (RS5982) at concentrations of 10 μM, 20 μM or 50 μM. In the negative and positive control experiments, the cells were treated with 0.25% DMSO and 1 μM of Paclitaxel, respectively. After 24 h and 48 h of incubation, the cells were pulse-labeled (30 min) with 10 μM of bromodeozyuridine (BrdU; stains actively replicating DNA), collected, and fixed with 95% ethanol. Next, the cells were treated with a BrdU-specific antibody (1:5 dilution, BD Bioscience 347580) and incubated for 1 h at room temperature. The secondary antibody used was AF488 Donkey anti mouse (dilution 1:50), which was incubated for 1 h at room temperature. Total DNA was stained overnight (4° C.) with 2.5 μg/ml of propidium iodide. Fluorescence-activated cell sorting (FACS) analysis next allowed the quantification of cells occurring in various stages of the cell cycle. Specifically, measurements were performed using MACSquant FACS (Miltenyi Biotech), and analysed by FlowJo software (Ashland). The G2/M cell cycle stage was evaluated by DNA content and negativity for BrdU incorporation, to avoid an overlap between G2 and late S-phase. The number of G2/M phase cells were plotted relative to that measured in the presence of 0.25% DMSO at each time point (fold change values=1).

[3] = system: MCF-7 primary breast adenocarcinoma cells; conditions: 10 μM, versus 0.1% DMSO, FIG. 7A-C
Procedure: The MCF-7 cells were seeded in six-well plates (300,000 cells/well), grown overnight (37° C., 5% CO2) during which they attached to the bottom plate. […] The cells were then fixated (10 min) with ice cold 100% methanol, washed twice with phosphate-buffered saline (PBS), and incubated with 3% (w/v) bovine serum albumin (BSA) in PBS containing 0.05% Tween 20 (room temperature, 1 h). Next, the cells were incubated (room temperature, 1 h) with human CREST patient serum (1:30 dilution, Antibodies Incorporated) to mark kinetochores, and mouse monoclonal anti-α-tubulin antibody (clone B512, 1:1000 dilution, Sigma) to mark microtubules, followed by incubation (room temperature, 30 min) with a secondary anti-mouse or anti-human IgG antibody that was conjugated either to chromophore AF647 (1:500, Invitrogen), AF488 (1:500 dilution, Invitrogen). DNA was stained with 0.1 μg/ml 4,6-diamidino-2-phenylindole (DAPI, Sigma Aldrich) and coverslips were mounted with Prolong Diamond Antifade (P36965, Invitrogen). To perform immunofluorescence imaging, the cells were captured on a confocal Nikon Eclipse Ti2-Spinning Disc V2 microscope (100× objective, NA=1.45, Nikon) equipped with an Andor iXon Ultra EMCCD camera. Images, acquired as Z-stacks (0.15 μm for each stack; about 80 stacks for mitotic cells) and analysed with ImageJ (Fiji) v1.53f51.

[4] = biological target: Ndc80 kinetochore subcomplex-MT binding (Homo sapiens, UniProt O14777); conditions: Ndc80 subcomplex:MTs 5 nM:10 nM; FIG. 3
Chain of Ndc80 kinetochore subcomplex-MT binding (O14777 whole entry): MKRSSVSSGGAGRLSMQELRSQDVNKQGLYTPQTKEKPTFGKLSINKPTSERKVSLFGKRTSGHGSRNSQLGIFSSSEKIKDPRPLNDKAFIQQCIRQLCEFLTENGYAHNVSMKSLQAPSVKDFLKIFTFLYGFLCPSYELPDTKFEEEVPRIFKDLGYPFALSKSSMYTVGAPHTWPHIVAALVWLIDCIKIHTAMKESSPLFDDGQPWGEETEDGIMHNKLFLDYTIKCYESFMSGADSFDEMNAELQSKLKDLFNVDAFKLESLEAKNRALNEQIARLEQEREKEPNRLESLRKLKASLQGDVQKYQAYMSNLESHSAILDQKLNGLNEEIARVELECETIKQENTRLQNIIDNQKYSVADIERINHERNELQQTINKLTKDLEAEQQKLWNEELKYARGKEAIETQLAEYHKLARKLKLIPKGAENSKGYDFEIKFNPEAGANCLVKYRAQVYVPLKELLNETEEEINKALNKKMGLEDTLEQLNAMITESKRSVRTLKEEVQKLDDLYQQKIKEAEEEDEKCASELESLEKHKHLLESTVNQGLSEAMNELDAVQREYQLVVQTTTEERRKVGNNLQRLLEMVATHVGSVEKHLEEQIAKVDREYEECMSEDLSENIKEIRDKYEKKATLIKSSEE
Chain of Ndc80 kinetochore subcomplex-MT binding (Q9BZD4 whole entry partner): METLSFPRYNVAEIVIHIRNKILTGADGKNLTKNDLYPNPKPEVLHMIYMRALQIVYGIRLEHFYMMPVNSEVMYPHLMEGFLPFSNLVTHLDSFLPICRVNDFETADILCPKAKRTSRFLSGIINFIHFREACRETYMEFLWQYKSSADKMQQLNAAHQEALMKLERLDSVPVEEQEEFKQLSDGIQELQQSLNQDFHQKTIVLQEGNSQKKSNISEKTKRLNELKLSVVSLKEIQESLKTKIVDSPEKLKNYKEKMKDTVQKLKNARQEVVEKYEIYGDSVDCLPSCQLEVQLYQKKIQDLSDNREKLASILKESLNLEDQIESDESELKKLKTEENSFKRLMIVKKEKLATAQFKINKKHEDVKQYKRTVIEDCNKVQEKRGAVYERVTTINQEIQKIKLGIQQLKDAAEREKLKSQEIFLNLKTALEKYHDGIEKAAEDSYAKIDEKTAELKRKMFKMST
Chain of Ndc80 kinetochore subcomplex-MT binding (Q8NBT2 whole entry partner): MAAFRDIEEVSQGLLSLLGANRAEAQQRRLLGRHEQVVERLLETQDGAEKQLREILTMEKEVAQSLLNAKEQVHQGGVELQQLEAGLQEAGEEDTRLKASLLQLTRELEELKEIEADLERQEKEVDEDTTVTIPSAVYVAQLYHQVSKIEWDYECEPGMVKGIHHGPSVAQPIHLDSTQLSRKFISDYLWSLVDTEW
Chain of Ndc80 kinetochore subcomplex-MT binding (Q9HBM1 whole entry partner): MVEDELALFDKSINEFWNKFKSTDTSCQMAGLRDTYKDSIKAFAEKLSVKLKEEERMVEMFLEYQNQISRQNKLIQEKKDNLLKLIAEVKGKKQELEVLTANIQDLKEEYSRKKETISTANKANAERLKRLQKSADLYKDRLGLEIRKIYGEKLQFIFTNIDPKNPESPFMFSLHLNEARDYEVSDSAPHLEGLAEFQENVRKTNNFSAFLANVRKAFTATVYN
Description: Next, the Ndc80 kinetochore subcomplex was bound to AlphaScreen® acceptor beads. In parallel, biotinylated and taxol-stabilised MTs were bound to streptavidin-covered AlphaScreen® donor beads. […] A decrease in light emission is caused by abrogated Ndc80 kinetochore subcomplex-MT binding.
The recombinant His6-tagged Ndc80 kinetochore subcomplex was bound to AlphaScreen® (Amplified Luminescent Proximity Homogeneous Assay Screen) Ni^2+-acceptor beads. In parallel, biotinylated and taxol-stabilised MTs (Cytoskeleton) were bound to streptavidin-covered AlphaScreen® donor beads (Perkin Elmer). […] A decrease in or loss of light emission is caused by a reduced or total loss of Ndc80 kinetochore subcomplex-MT binding.

Row | inhibition in the biochemical AlphaScreen binding assay [4] [%] | SMILES | cell viability ([1]; 50 μM, FIG. 6) | cell proliferation (summary statement) [2] | anomalous kinetochore activity (unbound sister chromatids, lagging chromosomes) compared to control cells [3] | cell viability ([1]; 10, 20 or 50 μM, 24, 48, 72 h, relative to 0.25% DMSO, FIG. 4) | arrest at mitotic entry (G2/M phase) ([2]; 10, 20 or 50 μM, 24 and 48 h, relative to 0.25% DMSO, FIG. 5)
1 |  | Cc1ccc(NC(=O)c2cc(-c3ccco3)nc3ccccc23)c(C)c1 [RS6008, N-(2,4-Dimethylphenyl)-2-(furan-2-yl) quinoline-4-carboxamide] | strong decrease in cell viability | delayed cell proliferation |  |  | 
2 | 59.93 | Cc1ccc(NC(=O)c2cc(-c3ccc(C)o3)nc3ccccc23)c(C)c1 [D5, N-(2,4-Dimethylphenyl)-2-(5-methylfuran-2-yl) quinoline-4-carboxamide] |  | delayed cell proliferation | increase in anomalous kinetochore activity | dose (D5)-dependent decrease in cell viability | enhanced arrest at mitotic entry (G2/M phase)
3 |  | Cc1ccc(-c2cc(C(=O)Nc3ccc(C(F)(F)F)cc3C(F)(F)F)c3ccccc3n2)o1 [RS6648, N-(2,4-bis(Trifluoromethyl)phenyl)-2-(5-methylfuran-2-yl) quinoline-4-carboxamide] |  | delayed cell proliferation | increase in anomalous kinetochore activity |  | 

From patent US20250074880A1, “NOVEL QUINOLINE DERIVATIVES AND USES THEREOF” (Istituto Europeo di Oncologia S.r.l., priority 2021, published 2025)
